The compounds below were run on alpha2 Adrenoceptors (Alpha2AR) (assay: Antagonist activity on alpha2 adrenoceptors in rat vas deferens in vitro (electrically evoked contractions)). Details: isolated rat vas deferens, field stimulation; antagonist added at least five minutes before alpha2AR agonist.
Description: Antagonist activity on alpha2 Adrenoceptors (Alpha2AR) in rat vas deferens in vitro
Rats were killed by CO2-suffocation. Vas deferentia were dissected out and both prostatic halves were removed to tissue chambers containing Krebs-solution of the following composition (mM): NaCl 118, KCl 4.7, CaCl22.5, KH2PO41.2, MgSO40.6, NaHCO325, glucose 11.1, aerated by 5% carbogen, temperature 37° C., pH 7.4. Propranolol […] and desipramine […] were added to prevent the possible effects on […] receptors and to prevent re-uptake of released norepinephrine, respectively. Preparations were tied to the bottom hooks of the incubation chambers and then to isometric force-displacement transducers above. Electrical stimulation was started after the equilibrium period (5 minutes under a resting tension of 0.5 g) by introducing field stimulation with the following parameters: twin-pulses, voltage 70 V, frequency 0.2 Hz, delay 5 ms, duration 2 ms. […] Inhibition of the electrically evoked contractions was measured as the response to alpha2AR agonists. Antagonist was administered into the incubation medium at least five minutes before agonist. Means ± SEM of percentage inhibition were calculated in the absence and in the presence of antagonist and expressed as dose-response curves. In order to express the antagonist potency, the pA2-value was calculated.

Compound | vas deferens Alpha2 antagonistic activity, pA2
c1ccc(C2CC(Cc3c[nH]cn3)c3ccccc32)cc1 (stereo not shown) [Compound 1, 4-(3-Phenylindan-1-ylmethyl)-1H-imidazole] | pA2 = 7.0
COc1cc2c(cc1OC)C(c1ccccc1)CC2Cc1c[nH]cn1 (stereo not shown) [Compound 2, 4-(5,6-Dimethoxy-3-phenylindan-1-ylmethyl)-1H-imidazole] | pA2 = 6.0
Oc1cc2c(cc1O)C(c1ccccc1)CC2Cc1c[nH]cn1 (stereo not shown) [Compound 3, 1-(1H-Imidazol-4-ylmethyl)-3-phenylindan-5,6-diol] | pA2 = 5.6
Oc1ccc2c(c1)C(Cc1c[nH]cn1)CC2c1ccccc1 (stereo not shown) [Compound 4, 3-(1H-imidazol-4-ylmethyl)-1-phenylindan-5-ol] | pA2 = 6.9
COc1ccc(C2CC(Cc3c[nH]cn3)c3cc(OC)ccc32)cc1 (stereo not shown) [Compound 5, 4-[6-Methoxy-3-(4-methoxyphenyl)indan-1-ylmethyl]-1H-imidazole] | pA2 = 6.3
Oc1ccc(C2CC(Cc3c[nH]cn3)c3cc(O)ccc32)cc1 (stereo not shown) [Compound 6, 1-(4-Hydroxyphenyl)-3-(1H-imidazol-4-ylmethyl)indan-5-ol] | pA2 = 6.6
Fc1ccc(C2CC(Cc3c[nH]cn3)c3ccccc32)cc1 (stereo not shown) [Compound 7, 4-[3-(4-Fluorophenyl)indan-1-ylmethyl]-1H-imidazole] | pA2 = 7.6
Oc1ccc2c(c1)C(Cc1c[nH]cn1)CC2c1ccc(F)cc1 (stereo not shown) [Compound 8, 1-(4-Fluorophenyl)-3-(1H-imidazol-4-ylmethyl)indan-5-ol] | pA2 = 6.7
Fc1cccc(C2CC(Cc3c[nH]cn3)c3ccccc32)c1 (stereo not shown) [Compound 9, 4-[3-(3-Fluorophenyl)indan-1-ylmethyl]-1H-imidazole] | pA2 = 6.2
Fc1ccccc1C1CC(Cc2c[nH]cn2)c2ccccc21 (stereo not shown) [Compound 10, 4-[3-(2-Fluorophenyl)indan-1-ylmethyl]-1H-imidazole] | pA2 = 6.2
Fc1ccc(C2CC(Cc3c[nH]cn3)c3ccccc32)cc1F (stereo not shown) [Compound 11, 4-[3-(3,4-Difluorophenyl)indan-1-ylmethyl]-1H-imidazole] | pA2 = 6.2
c1ccc(C2OC(Cc3c[nH]cn3)c3ccccc32)cc1 (stereo not shown) [Compound 12, 4-(3-Phenyl-1,3-dihydroisobenzofuran-1-ylmethyl)-1H-imidazole] | pA2 = 6.3
COc1ccc2c(c1)C(Cc1c[nH]cn1)C(c1ccccc1)C2 (stereo not shown) [Compound 13, 4-[(2,3-Dihydro-6-methoxy-2-phenyl-1H-inden-1-yl)methyl]-1H-imidazole] | pA2 = 5.6
Oc1ccc2c(c1)C(Cc1c[nH]cn1)C(c1ccccc1)C2 (stereo not shown) [Compound 14, 3-(1H-Imidazol-4-ylmethyl)-2-phenylindan-5-ol] | pA2 = 5.5
Fc1ccc(C2CC(Cc3c[nH]cn3)c3cc(F)ccc32)cc1 (stereo not shown) [Compound 15, 4-[6-Fluoro-3-(4-fluorophenyl)indan-1-ylmethyl]-1H-imidazole] | pA2 = 6.2
c1ccc(C2Cc3ccccc3C2Cc2c[nH]cn2)cc1 (stereo not shown) [Compound 16, 4-[(2,3-Dihydro-2-phenyl-1H-inden-1-yl)methyl]-1H-imidazole] | pA2 = 6.5

Source: patent US6388090B2, “Imidazole derivatives” (Orion Corporation, priority 2000, dated 2002)
